Measured values taken from ChEMBL document CHEMBL5131435, “Boronic acid derivative activates pyruvate kinase M2 indispensable for redox metabolism in oral cancer cells” (Bioorg Med Chem Lett, 2022).
Calls of active or inactive are those of the source. The calls are words filed in the database; no cut-off is given here.

How the values were obtained:
Type in all cases: cell-based
Pyruvate kinase PKM [1] = target: T1, Pyruvate kinase PKM (Homo sapiens, UniProt P14618); test: Activation of PKM2 in human CAL-27 cells measured after 3 hrs
Pyruvate kinase PKM [2] = target: T1, Pyruvate kinase PKM; test: Activation of PKM2 in human CAL-27 cells assessed as increased in TPI1 activity at 12.5 to 50 nM measured after 3 hrs; settings: filed as activator, dose 12.5-50 nM
Target sequence in this assay (P14618 2-531 limits assumed): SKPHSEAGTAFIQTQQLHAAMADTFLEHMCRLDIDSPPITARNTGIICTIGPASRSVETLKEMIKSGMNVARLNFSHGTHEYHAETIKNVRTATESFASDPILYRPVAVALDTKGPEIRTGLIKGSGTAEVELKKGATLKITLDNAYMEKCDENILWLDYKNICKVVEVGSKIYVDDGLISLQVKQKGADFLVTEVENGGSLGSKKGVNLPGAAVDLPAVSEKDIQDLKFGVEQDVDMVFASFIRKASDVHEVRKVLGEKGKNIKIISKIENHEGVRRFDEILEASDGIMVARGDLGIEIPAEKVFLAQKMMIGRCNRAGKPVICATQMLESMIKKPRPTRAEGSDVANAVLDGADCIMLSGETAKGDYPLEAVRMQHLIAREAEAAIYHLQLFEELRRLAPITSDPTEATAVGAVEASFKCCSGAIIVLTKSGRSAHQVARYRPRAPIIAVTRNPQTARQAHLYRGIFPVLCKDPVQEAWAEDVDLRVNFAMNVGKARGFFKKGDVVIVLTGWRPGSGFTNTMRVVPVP

Pyruvate kinase PKM [3] = target: T1, Pyruvate kinase PKM; test: Activation of PKM2 in human CAL-27 cells assessed as decrease in GSH level at 12.5 to 50 nM; settings: filed as activator, dose 12.5-50 nM
Target sequence in this assay (P14618 2-531 limits assumed): as above

Pyruvate kinase PKM [4] = target: T1, Pyruvate kinase PKM; test: Activation of PKM2 in human CAL-27 cells assessed as decrease in lactate levels at 12.5 to 50 nM; settings: filed as activator, dose 12.5-50 nM
Target sequence in this assay (P14618 2-531 limits assumed): as above

Pyruvate kinase PKM [5] = target: T1, Pyruvate kinase PKM; test: Activation of PKM2 in human CAL-27 cells assessed as decrease in NADP+/NADPH ratio at 12.5 to 50 nM; settings: filed as activator, dose 12.5-50 nM
Target sequence in this assay (P14618 2-531 limits assumed): as above

Pyruvate kinase PKM [6] = target: T1, Pyruvate kinase PKM; test: Activation of PKM2 in human CAL-27 cells assessed as increased in TPI1 activity at 52 nM measured after 3 hrs; settings: filed as activator
Target sequence in this assay (P14618 2-531 limits assumed): as above

Pyruvate kinase PKM [7] = target: T1, Pyruvate kinase PKM; test: Activation of PKM2 in human CAL-27 cells assessed as decrease in GSH level at 52 nM; settings: filed as activator
Target sequence in this assay (P14618 2-531 limits assumed): as above

Row | AC50 (Pyruvate kinase PKM [1]) | Activity (Pyruvate kinase PKM [1]; filed as activator, dose 10-100 nM, DDE = dose-dependent effect) | Activity (Pyruvate kinase PKM [2]) | Activity (Pyruvate kinase PKM [3]) | Activity (Pyruvate kinase PKM [4]) | Activity (Pyruvate kinase PKM [5]) | Activity (Pyruvate kinase PKM [6]) | Activity (Pyruvate kinase PKM [7]) | SMILES
1 | 0.05 µM | Dde | Active | Active | Active | Active | – | – | CCOC(=O)/C(=C\c1ccc(B(O)O)cc1)C(=O)c1sc(Nc2ccc(Cl)cc2)nc1N(C)C
2 | 0.052 µM | – | – | – | – | – | Active | Active | Nc1cccc(S(=O)(=O)N2CCCN(S(=O)(=O)c3ccc4c(c3)OCCO4)CC2)c1
